Measured values from PubChem BioAssay AID493108 (The Scripps Research Institute Molecular Screening Center, 2011).
The source made the active and inactive calls. No rule for the calls is given here.

Tests used:
Assay in all cases: in situ serine hydrolase inhibition, LYPLA1/LYPLA2/ABHD11 – cell-based, gel-based ABPP, fluorescence, late-stage follow-up (AID 493108)
Details in all cases: cells, competitive ABPP fluorescence gel, at 0.03 µM, stronger effect = higher value
LYPLA2 = tested on: LYPLA2
LYPLA1 = tested on: LYPLA1
ABHD11 = tested on: ABHD11

inhibition (LYPLA2)	inhibition (LYPLA1)	inhibition (ABHD11) [%]	Compound
0% (inactive)	0% (inactive)	100	CCC1CCCCN1C(=O)n1ncc(C(O)(c2ccccc2)c2ccccc2)n1 (centres undefined)
100%	100%	100	CC(C)(C)C1CCN(C(=O)n2ncc(C(O)(c3ccccc3)c3ccccc3)n2)CC1
100%	100%	100	CC(C)(O)c1cnn(C(=O)N2CCC(C(C)(C)C)CC2)n1
